In article PMC5854708, “Grass Carp Prolactin Gene: Structural Characterization and Signal Transduction for PACAP-induced Prolactin Promoter Activity” (Scientific Reports, 2018):

Columns and labels:
[1] = system: grass carp PRL promoter deletion/mutation/truncation constructs in αT3-1 cells; assay: Deletion, mutagenesis and truncation analysis of PRL promoter activity, dual-luciferase, αT3-1 cells; type: cell-based, grass carp (promoter); rat (αT3-1 cells, as printed); conditions: PACAP 10 nM, 24 hrs, n = 4
Description: To test the functionality of the grass carp PRL promoter, a series of deletion constructs were prepared by subcloning decreasing lengths of 5′ promoter sequence of PRL gene into the luciferase-expressing reporter pGL3.Basic. […] In this study, the upstream promoter of the carp PRL gene, including pPRL(−1156), pPRL(−914), pPRL(−670), pPRL(−448) and pPRL(−306), acted as strong promoters in αT3-1 cells. […] Subsequently, mutagenesis and truncation analysis were performed to investigate the role of transcription sites in PRL promoter activity.
Figure 3 Deletion, mutagenesis and truncation analysis of PRL promoter activity in αT3-1 cells. (A) Deletion analysis of the oPACAP38-induced PRL promoter activity. […] TEXT PRINTED IN THE PICTURE: (A) oPACAP38: pPRL(-1156).LUC: X 4.80 ± 0.15 *; pPRL(-914).LUC: X 4.51 ± 0.26 *; pPRL(-670).LUC: X 3.85 ± 0.17 *; pPRL(-448).LUC: X 3.79 ± 22 *; pPRL(-306).LUC: X 3.83 ± 0.12 *; pPRL(-166).LUC: X 3.26 ± 0.20 *; pPRL(-124).LUC: X 3.57 ± 0.19 *; pPRL(-57).LUC: X 2.09 ± 0.12 * DOUBTS OF THE COPYIST ABOUT THIS PICTURE: oPACAP38, pPRL(-448).LUC: the error reads '± 22' with no decimal point visible; '0.' may be missing or hidden / oPACAP38, pPRL(-306).LUC: 3.83 or 3.63 (small rotated print crossed by the dotted frame line) / The fold values (X ...) are printed over the oPACAP38 bars, one per promoter construct. […]

[2] = system: PRL secretion / PRL mRNA in grass carp pituitary cells; conditions: cited from earlier work
Excerpt: In carp model, PACAP nerve fibers can be identified in anterior pituitary overlapping with the distribution of lactotrophs. Furthermore, PAC1 receptors could be detected in grass carp lactotrophs.

ERK in GH3 cells = conditions: cited from earlier work
Excerpt: (§1) In primary pituitary cells, PRL production induced by PACAP via functional coupling of cAMP/PKA−, Ca^2+/CaM−, and MAPK-dependent cascades. At the transcription level, cAMP/PKA and Ca^2+/CaM/CaM-II pathways are consistently involved in the PACAP regulation on PRL promoter activity. In mammalian cell models, e.g., in human SH-SY5Y neuroblastoma cells, functional coupling of MAPK (e.g., Erk1/2 and P38^MAPK) with cAMP-dependent mechanism has been reported. […] However, in our studies with αT3-1 cells, the inhibitors f ...

ERK in αT3–1 cells = conditions: cited from earlier work
Excerpt: as §1

[3] = system: cAMP production in αT3-1 cells; conditions: via PAC1 receptors; cited from earlier work
CREB = conditions: mammalian cell models; via cAMP/PKA, cAMP/ERK and/or PLC/PKC; cited from earlier work
Excerpt: CREB is a member of the leucine zipper transcription factors and well-known to be involved in the activation of cAMP-inducible genes. […] Expression of a dominant-negative form of CREB (MCREB) inhibited basal and Forskolin-induced PRL promoter activity and PRL mRNA expression in rat lactotrophs ...

Substance: pituitary adenylate cyclase-activating peptide [PACAP]
- PACAP-stimulated promoter activity upon mutagenesis and truncation of AP-1 site ([1]; AP-1 site −136 to −130, pPRL(−166).Luc): significantly suppressed
- PACAP-stimulated promoter activity upon mutagenesis and truncation of C/EBPalpha site ([1]; C/EBPalpha site −226 to −217, pPRL(−306).Luc): significantly suppressed
- PRL mRNA expression [2]: up-regulated
- PRL secretion [2]: up-regulated
- ERK activation (ERK in GH3 cells): triggered ERK activation
- ERK activation (ERK in αT3–1 cells): stimulates ERK activation
- cAMP production [3]: induced
- CREB phosphorylation (CREB): trigger CREB phosphorylation
